In this assay the target is T1, IRAK4 (Homo sapiens, UniProt Q9NWZ3).
T1 construct: His (N); TEV cleavage site (N)
T1 sequence (Q9NWZ3 1-460): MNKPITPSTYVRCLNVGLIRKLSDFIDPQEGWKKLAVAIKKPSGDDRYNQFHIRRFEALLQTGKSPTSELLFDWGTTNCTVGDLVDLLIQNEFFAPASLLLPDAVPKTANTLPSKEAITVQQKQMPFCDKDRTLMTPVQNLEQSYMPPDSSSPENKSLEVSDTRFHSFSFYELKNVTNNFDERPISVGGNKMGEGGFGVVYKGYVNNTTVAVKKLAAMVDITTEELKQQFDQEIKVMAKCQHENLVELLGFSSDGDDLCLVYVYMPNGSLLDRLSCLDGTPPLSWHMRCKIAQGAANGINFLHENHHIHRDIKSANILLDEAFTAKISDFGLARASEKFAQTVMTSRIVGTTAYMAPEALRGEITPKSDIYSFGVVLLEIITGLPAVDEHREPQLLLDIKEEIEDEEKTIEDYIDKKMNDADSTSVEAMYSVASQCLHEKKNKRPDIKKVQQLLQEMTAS
Description: IRAK4 Enzymatic Assay. Conditions: His-TEV-IRAK4 20 ng/well, ATP 2 μM, STK1-biotin peptide 300 nM, 3 hours at 30° C., FlashPlate radioactivity. It counts as biochemical. In outline: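 Recombinant His-TEV-tagged IRAK4 (20 ng/well) phosphorylates biotinylated STK1 peptide (300 nM) with 2 μM ATP plus [^33P]ATP, 3 h at 30 °C in pH 7.0 HEPES buffer with MgCl2 and MnCl2; compounds tested 20 μM to 1 nM. Reaction stopped with EDTA; incorporated radioactivity counted on streptavidin FlashPlates.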
On to `COCC1CCCN(C(=O)Cn2cc(-c3cnc(-c4cccc(-c5cnn(C)c5)c4)nc3)cn2)C1` (stereo not shown) [Example 88, 1-(3-Methoxymethyl-piperidin-1-yl)-2-(4-{2-[3-(1-methyl-1H-pyrazol-4-yl)-phenyl]-pyrimidin-5-yl}-pyrazol-1-yl)-ethanone], for which the IC50 lay within 0.1 to 1 µM.

As for `Cc1ncccc1CCn1cc(-c2cnc(-c3cccc(-c4cnn(C)c4)c3)nc2)cn1` [Example 89, 2-[3-(1-Methyl-1H-pyrazol-4-yl)-phenyl]-5-{1-[2-(2-methyl-pyridin-3-yl)-ethyl]-1H-pyrazol-4-yl}-pyrimidine], the IC50 was in the range of 0.1 to 1 µM.

On to `COC1CCN(C(=O)Cn2cc(-c3cnc(-c4cccc(-c5cnn(C)c5)c4)nc3)cn2)C1` (stereo not shown) [Example 90, 1-(3-Methoxy-pyrrolidin-1-yl)-2-(4-{2-[3-(1-methyl-1H-pyrazol-4-yl)-phenyl]-pyrimidin-5-yl}-pyrazol-1-yl)-ethanone], for which the IC50 lay within 0.1 to 1 µM.

Regarding `CN(C(=O)Cn1cc(-c2cnc(-c3cccc(-c4cnn(C)c4)c3)nc2)cn1)C1CCOCC1` [Example 91, N-Methyl-2-(4-{2-[3-(1-methyl-1H-pyrazol-4-yl)-phenyl]-pyrimidin-5-yl}-pyrazol-1-yl)-N-(tetrahydro-pyran-4-yl)-acetamide], the IC50 fell in the range of 0.1 to 1 µM.

On to `Cn1cc(-c2cccc(-c3ncc(-c4cnn(CC(=O)N5C[C@@H]6C[C@H]5CO6)c4)cn3)c2)cn1` [Example 92, 2-(4-{2-[3-(1-Methyl-1H-pyrazol-4-yl)-phenyl]-pyrimidin-5-yl}-pyrazol-1-yl)-1-(1S,4S)-2-oxa-5-aza-bicyclo[2.2.1]hept-5-yl-ethanone], for which the IC50 was 0.1 to 1 µM.

In the case of `Cn1cc(-c2cccc(-c3ncc(-c4cnn(CC(=O)N5CCCOCC5)c4)cn3)c2)cn1` [Example 93, 2-(4-{2-[3-(1-Methyl-1H-pyrazol-4-yl)-phenyl]-pyrimidin-5-yl}-pyrazol-1-yl)-1-[1,4]oxazepan-4-yl-ethanone], the IC50 fell in the range of 0.1 to 1 µM.

As for `Cn1cc(-c2cccc(-c3ncc(-c4cnn(CC(=O)N5CC6CCC(C5)O6)c4)cn3)c2)cn1` [Example 94, 2-(4-{2-[3-(1-Methyl-1H-pyrazol-4-yl)-phenyl]-pyrimidin-5-yl}-pyrazol-1-yl)-1-(8-oxa-3-aza-bicyclo[3.2.1]oct-3-yl)-ethanone], the IC50 is 0.1 to 1 µM.

Consider `Cn1cc(-c2cccc(-c3ncc(-c4cnn(C5CCN(C6CCOCC6F)CC5)c4)cn3)c2)cn1` (stereo not drawn) [Example 95, Cis-5-{1-[1-(3-Fluoro-tetrahydro-pyran-4-yl)-piperidin-4-yl]-1H-pyrazol-4-yl}-2-[3-(1-methyl-1H-pyrazol-4-yl)-phenyl]-pyrimidine], for which the IC50 is 0.1 to 1 µM.

Consider `COc1ccc(CCn2cc(-c3cnc(-c4cccc(-c5cnn(C)c5)c4)nc3)cn2)cc1OC` [Example 96, 5-{1-[2-(3,4-Dimethoxy-phenyl)-ethyl]-1H-pyrazol-4-yl}-2-[3-(1-methyl-1H-pyrazol-4-yl)-phenyl]-pyrimidine], for which the half-maximal inhibitory concentration (IC50) was in the range of 0.1 to 1 µM.

Regarding `Cn1cc(-c2cccc(-c3ncc(-c4cnn(C5CCOCC5)c4)cn3)c2)cn1` [Example 97, 2-[3-(1-Methyl-1H-pyrazol-4-yl)-phenyl]-5-[1-(tetrahydro-pyran-4-yl)-1H-pyrazol-4-yl]-pyrimidine], the IC50 was 0.1 to 1 µM.

Turning to `COCCn1cc(-c2cnc(-c3cccc(-c4cnn(C)c4)c3)nc2)cn1` [Example 98, 5-[1-(2-Methoxy-ethyl)-1H-pyrazol-4-yl]-2-[3-(1-methyl-1H-pyrazol-4-yl)-phenyl]-pyrimidine], the IC50 was in the range of 0.1 to 1 µM.

As for `CC(C(=O)N(C)C)n1cc(-c2cnc(-c3cccc(-c4cnn(C)c4)c3)nc2)cn1` (stereo not shown) [Example 99, N,N-Dimethyl-2-(4-{2-[3-(1-methyl-1H-pyrazol-4-yl)-phenyl]-pyrimidin-5-yl}-pyrazol-1-yl)-propionamide], the IC50 is 1 to 5 µM.

With `COC1CN(C(=O)CCn2cc(-c3cnc(-c4cccc(-c5cnn(C)c5)c4)nc3)cn2)C1` [Example 100, 1-(3-Methoxy-azetidin-1-yl)-3-(4-{2-[3-(1-methyl-1H-pyrazol-4-yl)-phenyl]-pyrimidin-5-yl}-pyrazol-1-yl)-propan-1-one], the IC50 was 1 to 5 µM.

For `Cn1cc(-c2cccc(-c3ncc(-c4cnn(CCC(=O)N5CC6(COC6)C5)c4)cn3)c2)cn1` [Example 101, 3-(4-{2-[3-(1-Methyl-1H-pyrazol-4-yl)-phenyl]-pyrimidin-5-yl}-pyrazol-1-yl)-1-(2-oxa-6-aza-spiro[3.3]hept-6-yl)-propan-1-one], the IC50 fell in the range of 1 to 5 µM.

Regarding `CN1CCN(C(=O)CCn2cc(-c3cnc(-c4cccc(-c5cnn(C)c5)c4)nc3)cn2)CC1` [Example 102, 1-(4-Methyl-piperazin-1-yl)-3-(4-{2-[3-(1-methyl-1H-pyrazol-4-yl)-phenyl]-pyrimidin-5-yl}-pyrazol-1-yl)-propan-1-one], the IC50 was in the range of 1 to 5 µM.

Regarding `CC(C(=O)N1CCOCC1)n1cc(-c2cnc(-c3cccc(-c4cnn(C)c4)c3)nc2)cn1` (stereo not shown) [Example 103, 2-(4-{2-[3-(1-Methyl-1H-pyrazol-4-yl)-phenyl]-pyrimidin-5-yl}-pyrazol-1-yl)-1-morpholin-4-yl-propan-1-one], the IC50 was in the range of 1 to 5 µM.

On to `Cn1cc(-c2cccc(-c3ncc(-c4cnn(C5CCN(C(=O)C6CCOC6)CC5)c4)cn3)c2)cn1` (stereo not shown) [Example 104, [4-(4-{2-[3-(1-Methyl-1H-pyrazol-4-yl)-phenyl]-pyrimidin-5-yl}-pyrazol-1-yl)-piperidin-1-yl]-(tetrahydro-furan-3-yl)-methanone], for which the IC50 was in the range of 0.1 to 1 µM.

As to `COCC(=O)N1CCC(n2cc(-c3cnc(-c4cccc(-c5cnn(C)c5)c4)nc3)cn2)CC1` [Example 105, 2-Methoxy-1-[4-(4-{2-[3-(1-methyl-1H-pyrazol-4-yl)-phenyl]-pyrimidin-5-yl}-pyrazol-1-yl)-piperidin-1-yl]-ethanone], the IC50 was 0.1 to 1 µM.

Consider `Cn1cc(-c2cccc(-c3ncc(-c4cnn(C5CCN(C(=O)CO)CC5)c4)cn3)c2)cn1` [Example 106, 2-Hydroxy-1-[4-(4-{2-[3-(1-methyl-1H-pyrazol-4-yl)-phenyl]-pyrimidin-5-yl}-pyrazol-1-yl)-piperidin-1-yl]-ethanone], for which the IC50 was in the range of 0.1 to 1 µM.

With `Cn1cc(-c2cccc(-c3ncc(-c4cnn(C5CCN(C(=O)C6CCOCC6)CC5)c4)cn3)c2)cn1` [Example 107, [4-(4-{2-[3-(1-Methyl-1H-pyrazol-4-yl)-phenyl]-pyrimidin-5-yl}-pyrazol-1-yl)-piperidin-1-yl]-(tetrahydro-pyran-4-yl)-methanone], the IC50 was in the range of 0.1 to 1 µM.

On to `Cn1cc(-c2cccc(-c3ncc(-c4cnn(C5CCN(C(=O)C6CCCCO6)CC5)c4)cn3)c2)cn1` (stereo not shown) [Example 108, [4-(4-{2-[3-(1-Methyl-1H-pyrazol-4-yl)-phenyl]-pyrimidin-5-yl}-pyrazol-1-yl)-piperidin-1-yl]-(tetrahydro-pyran-2-yl)-methanone], for which the IC50 fell in the range of 0.1 to 1 µM.

Turning to `COCCC(=O)N1CCC(n2cc(-c3cnc(-c4cccc(-c5cnn(C)c5)c4)nc3)cn2)CC1` [Example 109, 3-Methoxy-1-[4-(4-{2-[3-(1-methyl-1H-pyrazol-4-yl)-phenyl]-pyrimidin-5-yl}-pyrazol-1-yl)-piperidin-1-yl]-propan-1-one], the IC50 was in the range of 0.1 to 1 µM.

With `Cn1cc(-c2cccc(-c3ncc(-c4cnn(C5C[C@H]6CC[C@@H](C5)N6)c4)cn3)c2)cn1` (stereo partly drawn) [Example 110, (1R,5S)-3-(4-{2-[3-(1-Methyl-1H-pyrazol-4-yl)-phenyl]-pyrimidin-5-yl}-pyrazol-1-yl)-8-aza-bicyclo[3.2.1]octane], the IC50 is 0.1 to 1 µM.

For `CCOCC(=O)N1CCC(n2cc(-c3cnc(-c4cccc(-c5cnn(C)c5)c4)nc3)cn2)CC1` [Example 111, 2-Ethoxy-1-[4-(4-{2-[3-(1-methyl-1H-pyrazol-4-yl)-phenyl]-pyrimidin-5-yl}-pyrazol-1-yl)-piperidin-1-yl]-ethanone], the IC50 was in the range of 0.1 to 1 µM.

In the case of `CCOC1CC(N2CCC(n3cc(-c4cnc(-c5cccc(-c6cnn(C)c6)c5)nc4)cn3)CC2)C1(C)C` (stereo not shown) [Example 112, 5-{1-[1-(3-Ethoxy-2,2-dimethyl-cyclobutyl)-piperidin-4-yl]-1H-pyrazol-4-yl}-2-[3-(1-methyl-1H-pyrazol-4-yl)-phenyl]-pyrimidine], the IC50 is 0.1 to 1 µM.

`CN1CC(C(=O)N2CCC(n3cc(-c4cnc(-c5cccc(-c6cnn(C)c6)c5)nc4)cn3)CC2)CC1=O` (stereo not shown) [Example 113, 1-Methyl-4-[4-(4-{2-[3-(1-methyl-1H-pyrazol-4-yl)-phenyl]-pyrimidin-5-yl}-pyrazol-1-yl)-piperidine-1-carbonyl]-pyrrolidin-2-one]: the IC50 is 0.1 to 1 µM.

In the case of `Cn1cc(-c2cccc(-c3ncc(-c4cnn(C5CCN(C(=O)CC(F)(F)F)CC5)c4)cn3)c2)cn1` [Example 114, 3,3,3-Trifluoro-1-[4-(4-{2-[3-(1-methyl-1H-pyrazol-4-yl)-phenyl]-pyrimidin-5-yl}-pyrazol-1-yl)-piperidin-1-yl]-propan-1-one], the IC50 fell in the range of 0.1 to 1 µM.

For `Cn1cc(-c2cccc(-c3ncc(-c4cnn(C5CCN(C(=O)C(O)C(F)(F)F)CC5)c4)cn3)c2)cn1` (stereo not shown) [Example 115, 3,3,3-Trifluoro-2-hydroxy-1-[4-(4-{2-[3-(1-methyl-1H-pyrazol-4-yl)-phenyl]-pyrimidin-5-yl}-pyrazol-1-yl)-piperidin-1-yl]-propan-1-one], the IC50 was 0.1 to 1 µM.

The IC50 is the concentration at which inhibition is half-maximal.

For the origin of these results see US9216991B2 (Ares Trading S.A., priority 2012, dated 2015).
